The values below come from patent US7803836B2, “Aminophenylsulfonamide derivatives as HIV protease inhibitor” (priority 2005, dated 2010).

What all share (experiment): microbe, parasite or virus in culture
Assay type in all cases: cell-based

Assay [1] has as its system clinically isolated HIV strain A (A-2-001). On the procedure:
(§1) The compounds were tested in a cellular assay using the MT4-LTR-EGFP cells for anti-viral activity. […] Because of the increasing emergence of drug resistant HIV strains, the present compounds were tested for their potency against clinically isolated HIV strains harboring several mutations. […] The viral strains A, B, C and D contain mutations as indicated below in Table 3.
(§2) The cellular assay was performed according to the following procedure. HIV- or mock-infected MT4-LTR-EGFP cells were incubated for three days in the presence of various concentrations of the compounds according to the invention. Upon infection, the viral tat protein activates the GFP reporter. At the end of the incubation period, the GFP signal was measured. […] The inhibitory activity of the compound was monitored on the virus-infected cells and was expressed as EC50. These values represent the amount of the compound required to protect 50% of the cells from virus infection.

Assay [2] deals with clinically isolated HIV strain B (B-2-001). On the procedure:
as §1, §2

In assay [3] the test system is clinically isolated HIV strain C (C-2-001). On the procedure:
as §1, §2

Assay [4] has as its system clinically isolated HIV strain D (D-2-001). On the procedure: as §1, §2
Assay [5] relates to wild type laboratory HIV strain (WT IIIB-2-001). The conditions noted are these: Human immunodeficiency virus 1, IIIB, 72 h, read-out: Virus Strains WT-IIIB-2-001. How it is done: as §1, §2
The mark [6] stands for this setting: Human immunodeficiency virus 1, 72 h, read-out: Virus Strains A-2-001.
Setting [7] is: Human immunodeficiency virus 1, 72 h, read-out: Virus Strains B-2-001.
The mark [8] stands for this setting: Human immunodeficiency virus 1, 72 h, read-out: Virus Strains C-2-001.
Setting [9] is: Human immunodeficiency virus 1, 72 h, read-out: Virus Strains D-2-001.

Like-named read-outs stand apart in the source and are kept apart here.

For the compound `CC(C)CN(C[C@@H](O)[C@H](Cc1ccccc1)NC(=O)O[C@H]1CO[C@H]2OCC[C@H]21)S(=O)(=O)c1ccc(N)c(N[C@H]2CCN(C3CCCC3)C2)c1` (stereo in doubt) [Compound 79, (3-{[4-amino-3-(1-cyclopentyl-pyrrolidin-3-ylamino)-benzene-sulfonyl]-isobutyl-amino}-1-benzyl-2-hydroxy-propyl)-carbamic acid hexahydrofuro[2,3-b]furan-3-yl ester], the EC50 was 20.9 nM in assay [1] (setting [6]); 275 nM in assay [2] (setting [7]); 50.1 nM in assay [3] (setting [8]); 38.9 nM in assay [4] (setting [9]); 66.1 nM in assay [5].

As for `CC(C)CN1CC[C@H](Nc2cc(S(=O)(=O)N(CC(C)C)C[C@@H](O)[C@H](Cc3ccccc3)NC(=O)O[C@H]3CO[C@H]4OCC[C@H]43)ccc2N)C1` (stereo in doubt) [Compound 83, (3-{[4-amino-3-(1-isobutyl-pyrrolidin-3-ylamino)-benzenesulfonyl]-isobutyl-amino}-1-benzyl-2-hydroxy-propyl)-carbamic acid hexahydro-furo-[2,3-b]furan-3-yl ester], the EC50 is 3.39 nM in assay [1] (setting [6]); 129 nM in assay [2] (setting [7]); 16.6 nM in assay [3] (setting [8]); 75.9 nM in assay [4] (setting [9]); 26.3 nM in assay [5].

`CC(C)CN(C[C@@H](O)[C@H](Cc1ccccc1)NC(=O)O[C@H]1CO[C@H]2OCC[C@H]21)S(=O)(=O)c1ccc(N)cc1` [TMC 114, (3R,3aS,6aR)-hexahydrofuro[2,3-b]furan-3-yl N-[(1S,2R)-1-benzyl-2-hydroxy-3-(N 1-isobutylsulfanilamido)propyl]carbamate, reference compound]: the EC50 in assay [1] (Human immunodeficiency virus 1, read-out: pEC50-A (converted)) was 7.94 nM; in assay [2] (Human immunodeficiency virus 1, read-out: pEC50-B (converted)), 851 nM; in assay [3] (Human immunodeficiency virus 1, read-out: pEC50-C (converted)) it was 89.1 nM; in assay [4] (Human immunodeficiency virus 1, read-out: pEC50-D (converted)), 4790 nM.
